Experiment in all cases: TGFα-shedding assay-based GPCR screening with chimeric Gα subunit proteins
What all share (type): cell-based

Assay [1] addresses T1, 348 GPCRs (Homo sapiens, UniProt Q96RJ0).
T1 construct: expressed in transfected cells; host or cells: HEK293A
T1 sequence (Q96RJ0 1-339): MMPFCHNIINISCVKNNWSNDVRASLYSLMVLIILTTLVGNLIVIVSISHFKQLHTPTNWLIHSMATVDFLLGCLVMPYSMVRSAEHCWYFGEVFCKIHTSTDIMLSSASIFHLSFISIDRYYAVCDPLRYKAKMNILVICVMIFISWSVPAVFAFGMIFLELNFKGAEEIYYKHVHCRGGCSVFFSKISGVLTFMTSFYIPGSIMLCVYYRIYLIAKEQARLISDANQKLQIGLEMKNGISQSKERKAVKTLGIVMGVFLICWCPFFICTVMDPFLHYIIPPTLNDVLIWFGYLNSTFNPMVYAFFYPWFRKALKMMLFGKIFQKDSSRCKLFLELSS
Particulars: 10µM, Favipiravir 100μM.

Assay [2] addresses T2, 348 GPCRs (Homo sapiens, UniProt P32247).
T2 construct: expressed in transfected cells; host or cells: HEK293A
T2 sequence (P32247 1-399): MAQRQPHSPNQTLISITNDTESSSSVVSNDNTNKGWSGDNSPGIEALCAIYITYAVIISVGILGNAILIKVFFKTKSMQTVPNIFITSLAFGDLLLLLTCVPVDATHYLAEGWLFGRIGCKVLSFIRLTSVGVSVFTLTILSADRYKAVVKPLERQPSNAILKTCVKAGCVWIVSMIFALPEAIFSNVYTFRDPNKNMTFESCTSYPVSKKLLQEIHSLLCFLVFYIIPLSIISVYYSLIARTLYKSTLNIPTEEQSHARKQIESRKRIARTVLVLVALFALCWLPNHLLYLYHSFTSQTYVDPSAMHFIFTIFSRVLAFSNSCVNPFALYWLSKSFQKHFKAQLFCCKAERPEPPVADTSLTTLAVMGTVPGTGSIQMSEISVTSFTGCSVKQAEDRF
Particulars: 10µM, Favipiravir 100μM.

Assay [3] addresses T3, 348 GPCRs (Homo sapiens, UniProt Q9NS67).
T3 construct: expressed in transfected cells; host or cells: HEK293A
Particulars: 10µM, Favipiravir 100μM.

In assay [4] the target is T4, 348 GPCRs (Homo sapiens, UniProt P16473).
T4 construct: expressed in transfected cells; host or cells: HEK293A
T4 sequence (P16473 21-764): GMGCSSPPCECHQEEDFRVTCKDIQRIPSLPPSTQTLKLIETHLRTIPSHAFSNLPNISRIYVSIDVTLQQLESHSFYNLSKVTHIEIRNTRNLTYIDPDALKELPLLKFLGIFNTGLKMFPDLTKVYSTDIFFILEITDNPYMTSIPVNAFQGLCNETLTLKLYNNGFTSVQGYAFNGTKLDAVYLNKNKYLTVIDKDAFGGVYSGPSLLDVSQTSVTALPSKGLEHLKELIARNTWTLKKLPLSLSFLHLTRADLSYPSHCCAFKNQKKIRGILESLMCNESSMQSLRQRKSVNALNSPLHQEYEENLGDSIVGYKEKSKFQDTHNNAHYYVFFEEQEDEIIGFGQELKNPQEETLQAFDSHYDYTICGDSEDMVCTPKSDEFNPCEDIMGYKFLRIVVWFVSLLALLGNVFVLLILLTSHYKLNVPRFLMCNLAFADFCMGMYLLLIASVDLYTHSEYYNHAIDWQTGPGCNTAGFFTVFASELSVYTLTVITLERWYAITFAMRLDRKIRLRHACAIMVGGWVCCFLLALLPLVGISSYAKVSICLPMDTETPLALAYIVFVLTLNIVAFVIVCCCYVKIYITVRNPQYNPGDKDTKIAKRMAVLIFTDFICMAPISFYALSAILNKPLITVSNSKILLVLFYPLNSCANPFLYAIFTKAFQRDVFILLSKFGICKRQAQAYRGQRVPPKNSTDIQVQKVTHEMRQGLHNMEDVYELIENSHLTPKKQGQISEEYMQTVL
Particulars: 10µM, Favipiravir 100μM.

The target in assay [5] is T5, 348 GPCRs (Homo sapiens, UniProt O14804).
T5 construct: expressed in transfected cells; host or cells: HEK293A
T5 sequence (O14804 1-337): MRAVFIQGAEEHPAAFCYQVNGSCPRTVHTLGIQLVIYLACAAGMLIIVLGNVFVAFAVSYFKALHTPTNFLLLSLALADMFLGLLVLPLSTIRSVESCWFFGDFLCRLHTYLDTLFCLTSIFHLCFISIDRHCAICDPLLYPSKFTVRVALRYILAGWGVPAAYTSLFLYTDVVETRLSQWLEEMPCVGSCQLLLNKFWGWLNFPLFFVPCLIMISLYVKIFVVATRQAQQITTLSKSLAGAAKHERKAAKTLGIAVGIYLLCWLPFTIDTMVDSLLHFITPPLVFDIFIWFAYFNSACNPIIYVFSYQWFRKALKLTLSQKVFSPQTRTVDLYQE
The note with it: 10µM, Favipiravir 100μM.

In assay [6] the target is T6, 348 GPCRs (Homo sapiens, UniProt Q9HBW0).
T6 construct: expressed in transfected cells; host or cells: HEK293A
T6 sequence (Q9HBW0 whole entry): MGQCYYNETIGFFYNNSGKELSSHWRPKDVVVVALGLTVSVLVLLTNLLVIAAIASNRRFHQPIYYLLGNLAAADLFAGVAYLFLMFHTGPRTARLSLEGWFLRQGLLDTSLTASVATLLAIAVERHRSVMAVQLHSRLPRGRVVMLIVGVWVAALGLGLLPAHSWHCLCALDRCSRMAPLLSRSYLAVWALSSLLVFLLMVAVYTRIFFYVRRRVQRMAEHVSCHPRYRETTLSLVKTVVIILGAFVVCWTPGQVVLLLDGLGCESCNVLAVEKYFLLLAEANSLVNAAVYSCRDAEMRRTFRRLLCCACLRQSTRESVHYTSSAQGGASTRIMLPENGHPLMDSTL
The note with it: 10µM, Favipiravir 100μM.

Assay [7] concerns the target T7, 348 GPCRs (Homo sapiens, UniProt Q8IZ08).
T7 construct: expressed in transfected cells; host or cells: HEK293A
Particulars: 10µM, Favipiravir 100μM.

Assay [8] addresses T8, 348 GPCRs (Homo sapiens, UniProt O00155).
T8 construct: expressed in transfected cells; host or cells: HEK293A
The note with it: 10µM, Favipiravir 100μM.

For assay [9], the target named is T9, 348 GPCRs (Homo sapiens, UniProt P24530).
T9 construct: expressed in transfected cells; host or cells: HEK293A
T9 sequence (P24530 27-442): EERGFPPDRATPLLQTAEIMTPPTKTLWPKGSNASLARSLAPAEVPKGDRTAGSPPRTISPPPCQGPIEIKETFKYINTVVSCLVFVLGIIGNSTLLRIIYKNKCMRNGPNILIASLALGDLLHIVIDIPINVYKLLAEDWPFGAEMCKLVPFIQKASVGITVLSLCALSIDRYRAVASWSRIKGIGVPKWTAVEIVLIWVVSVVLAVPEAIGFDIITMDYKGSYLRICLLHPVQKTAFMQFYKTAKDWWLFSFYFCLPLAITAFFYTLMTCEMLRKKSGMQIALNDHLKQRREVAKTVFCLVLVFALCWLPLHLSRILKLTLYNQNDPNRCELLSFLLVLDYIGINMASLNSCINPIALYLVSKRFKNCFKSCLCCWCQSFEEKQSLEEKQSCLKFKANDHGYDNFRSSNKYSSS
Particulars: 10µM, Favipiravir 100μM.

Assay [10] deals with T10, 348 GPCRs (Homo sapiens, UniProt P25105).
T10 construct: expressed in transfected cells; host or cells: HEK293A
T10 sequence (P25105 whole entry): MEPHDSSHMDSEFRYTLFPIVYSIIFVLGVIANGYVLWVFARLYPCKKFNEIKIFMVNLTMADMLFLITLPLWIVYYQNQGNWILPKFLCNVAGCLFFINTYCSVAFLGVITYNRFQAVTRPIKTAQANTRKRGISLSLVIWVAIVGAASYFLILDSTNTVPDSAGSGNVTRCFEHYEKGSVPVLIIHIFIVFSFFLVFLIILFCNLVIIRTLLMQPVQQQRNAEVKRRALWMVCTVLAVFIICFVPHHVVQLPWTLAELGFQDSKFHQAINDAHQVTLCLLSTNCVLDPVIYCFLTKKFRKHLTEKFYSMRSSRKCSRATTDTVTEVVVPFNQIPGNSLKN

Setting [11] is: read-out: % GPCR activation compared to TPA, TA1 (trace amine associated receptor 1).
Setting [12] is: read-out: % GPCR activation compared to TPA, BB3 (Bombesin receptor, subtype 3).
The mark [13] stands for this setting: read-out: % GPCR activation compared to TPA, GPR27 (G Protein-Coupled Receptor 27).
The mark [14] stands for this setting: read-out: % GPCR activation compared to TPA, TSHR (thyroid stimulating hormone receptor).
Setting [15] is: read-out: % GPCR activation compared to TPA, TAAR5 (trace amine associated receptor 5).
Setting [16] is: read-out: % GPCR activation compared to TPA, LPAR2 (lysophosphatidic acid receptor 2).
Setting [17] is: read-out: % GPCR activation compared to TPA, GPR135 (G Protein-Coupled Receptor 135).
The mark [18] stands for this setting: read-out: % GPCR activation compared to TPA, GPR25 (G Protein-Coupled Receptor 25).
Setting [19] is: read-out: % GPCR activation compared to TPA, EDNRB (endothelin receptor type B).
The mark [20] stands for this setting: read-out: % GPCR activation compared to TPA, GPCR PAFR (platelet activating factor receptor).
Setting [21] is: TA1 (trace amine associated receptor 1), read-out: % GPCR activation compared to TPA.
Where [22] appears, read: BB3 (Bombesin receptor, subtype 3), read-out: % GPCR activation compared to TPA.
[23] abbreviates: GPR27 (G Protein-Coupled Receptor 27), read-out: % GPCR activation compared to TPA.
[24] abbreviates: TSHR (thyroid stimulating hormone receptor), read-out: % GPCR activation compared to TPA.
Setting [25] is: TAAR5 (trace amine associated receptor 5), read-out: % GPCR activation compared to TPA.
[26] abbreviates: LPAR2 (lysophosphatidic acid receptor 2), read-out: % GPCR activation compared to TPA.
Where [27] appears, read: GPR135 (G Protein-Coupled Receptor 135), read-out: % GPCR activation compared to TPA.
[28] abbreviates: GPR25 (G Protein-Coupled Receptor 25), read-out: % GPCR activation compared to TPA.
[29] abbreviates: EDNRB (endothelin receptor type B), read-out: % GPCR activation compared to TPA.
Where [30] appears, read: GPCR PAFR (platelet activating factor receptor), read-out: % GPCR activation compared to TPA.

Read-outs that look alike come from different tables or passages of the source.

T7 sequence (Q8IZ08 whole entry): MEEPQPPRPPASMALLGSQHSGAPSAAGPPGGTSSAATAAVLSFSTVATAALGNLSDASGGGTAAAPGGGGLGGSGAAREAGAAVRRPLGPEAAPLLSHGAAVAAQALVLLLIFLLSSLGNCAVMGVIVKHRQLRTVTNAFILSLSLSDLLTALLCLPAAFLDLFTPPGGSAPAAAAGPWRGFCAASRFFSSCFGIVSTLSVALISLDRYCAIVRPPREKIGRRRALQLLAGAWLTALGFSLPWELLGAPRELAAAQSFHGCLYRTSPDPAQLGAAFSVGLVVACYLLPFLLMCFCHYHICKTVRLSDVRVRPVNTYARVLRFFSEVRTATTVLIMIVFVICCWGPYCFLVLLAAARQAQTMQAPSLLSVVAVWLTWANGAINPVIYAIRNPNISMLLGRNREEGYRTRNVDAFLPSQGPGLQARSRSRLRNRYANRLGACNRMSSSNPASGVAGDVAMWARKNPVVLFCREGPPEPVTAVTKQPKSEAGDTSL
T8 sequence (O00155 whole entry): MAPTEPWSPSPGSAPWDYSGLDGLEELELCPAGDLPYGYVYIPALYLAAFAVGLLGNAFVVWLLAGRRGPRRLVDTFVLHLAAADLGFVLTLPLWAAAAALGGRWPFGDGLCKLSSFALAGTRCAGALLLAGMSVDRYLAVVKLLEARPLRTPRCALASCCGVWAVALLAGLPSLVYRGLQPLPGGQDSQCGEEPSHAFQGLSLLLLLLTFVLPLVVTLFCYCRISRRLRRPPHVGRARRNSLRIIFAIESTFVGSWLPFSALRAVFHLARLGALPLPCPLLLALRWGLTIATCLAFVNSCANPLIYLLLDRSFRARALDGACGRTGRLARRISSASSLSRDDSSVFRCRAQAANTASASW
T3 sequence (Q9NS67 whole entry): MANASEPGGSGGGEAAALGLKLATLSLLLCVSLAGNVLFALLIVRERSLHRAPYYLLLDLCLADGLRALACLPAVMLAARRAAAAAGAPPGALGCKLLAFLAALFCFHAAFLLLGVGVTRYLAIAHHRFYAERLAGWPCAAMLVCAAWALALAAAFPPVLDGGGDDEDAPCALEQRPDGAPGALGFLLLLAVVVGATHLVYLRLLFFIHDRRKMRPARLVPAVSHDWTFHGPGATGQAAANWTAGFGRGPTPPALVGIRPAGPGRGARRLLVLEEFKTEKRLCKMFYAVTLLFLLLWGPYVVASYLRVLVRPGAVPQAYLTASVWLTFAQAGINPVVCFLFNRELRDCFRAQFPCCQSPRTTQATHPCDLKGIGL

In the case of `CC(C)OC(=O)[C@H](C)N[P@](=O)(OC[C@H]1O[C@@H](n2ccc(=O)[nH]c2=O)[C@](C)(F)[C@@H]1O)Oc1ccccc1` [sofosbuvir], the activation at 100 µM in assay [1] (setting [11]) was -1.12%; in assay [3] (setting [13]), 1.94%; in [5] (setting [15]) it was -2.96%; in assay [7] (setting [17]) it was -2.6%; in [8] (setting [18]), -0.661%; in assay [9] (setting [19]), -2.57%. For the same compound, the activation at 10 µM in [2] (setting [12]) was 7.68%; in [4] (setting [14]), -0.338%; in [6] (setting [16]), 2.99%; in [10] (setting [20]), -7.19%.

Regarding `NC(=O)c1nc(F)cnc1O` [favipiravir, 6-fluoro-3-hydroxy-2-pyrazinecarboxamide], the activation at 100 µM is -2.98% in assay [1] (setting [21]); -0.296% in assay [3] (setting [23]); -0.417% in assay [5] (setting [25]); -0.994% in assay [7] (setting [27]); -2.15% in assay [8] (setting [28]); -3.11% in [9] (setting [29]). Further, the activation at 100 µM in assay [10] (GPCR PAFR (platelet activating factor receptor), 100μM, read-out: % GPCR activation compared to TPA) was -0.53%. For the same compound, the activation at 10 µM was -0.00483% in [2] (setting [22]), -1.11% in [4] (setting [24]) and 1.47% in assay [6] (setting [26]).

Regarding `CCC(CC)COC(=O)[C@H](C)N[P@](=O)(OC[C@H]1O[C@@](C#N)(c2ccc3c(N)ncnn23)[C@H](O)[C@@H]1O)Oc1ccccc1` [remdesivir], the activation at 100 µM in assay [1] (setting [11]) is -1.76%; in assay [3] (setting [13]), 0.0845%; in assay [5] (setting [15]), 0.868%; in [7] (setting [17]), -2.35%; in assay [8] (setting [18]) it was -2.29%; in assay [9] (setting [19]), -2.2%. For the same compound, the activation at 10 µM in [2] (setting [12]) is 2.03%; in [4] (setting [14]) it was -3.29%; in assay [6] (setting [16]) it was 1.11%; in [10] (setting [20]) it was 6.57%.

As to `N#C[C@@]1(c2ccc3c(N)ncnn23)O[C@H](CO)[C@@H](O)[C@H]1O` [GS441524], the activation at 100 µM is -1.3% in assay [1] (setting [21]); 1.65% in assay [3] (setting [23]); 0.608% in assay [5] (setting [25]); -1.68% in assay [7] (setting [27]); -1.73% in [8] (setting [28]); -4.24% in assay [9] (setting [29]). The activation at 10 µM is 1.72% in [2] (setting [22]), -1.39% in assay [4] (setting [24]), -0.123% in [6] (setting [26]) and -1.62% in [10] (setting [30]).

Regarding `CC(C)C(=O)OC[C@H]1O[C@@H](n2ccc(NO)nc2=O)[C@H](O)[C@@H]1O` [molnupiravir], the activation at 100 µM in assay [1] (setting [21]) was -2.64%; in assay [3] (setting [23]) it was -0.612%; in assay [5] (setting [25]) it was -1.58%; in assay [7] (setting [27]), -1.53%; in assay [8] (setting [28]), -2.16%; in assay [9] (setting [29]), -3.6%. For the same compound, the activation at 10 µM in assay [2] (setting [22]) is 0.338%; in assay [4] (setting [24]) it was -0.502%; in assay [6] (setting [26]), 2.59%; in assay [10] (setting [30]) it was -6.72%.
